Reference: article PMC8456977, “Inclusion Complexes of Gold(I)‐Dithiocarbamates with β‐Cyclodextrin: A Journey from Drug Repurposing towards Drug Discovery” (Chemistry (Weinheim an Der Bergstrasse, Germany), 2021)
Each block holds one compound with its values, some of them ahead of it.

What was measured:
HeLa = assay: Quantification of drug sensitivity (CellTiter-Blue), HeLa; assay type: cell-based; details: HeLa (cervix carcinoma), 72 h, 30-fold excess 2-hydroxypropyl-β-cyclodextrin, combination DSF/ATM 1:1
Procedure: (§1) Quantification of drug sensitivity (Figure 2A): Cell lines (including HT‐29) were obtained from ATCC or as gifts from other research groups at the DKFZ and checked for mycoplasma contamination and authenticity before use. Cell lines were seeded in 96‐well plates in RPMI‐1640 medium, supplemented with 10 % BCS (bovine calf serum) and 1 % Pen/Strep at a density of 2×10^4 cells/well. Disulfiram (DSF) and sodium aurothiomalate (ATM) were added at a fixed ratio of 1 : 1, formulated in a 30‐fold molar excess of 2HP‐β‐CD (2‐hydroxypropyl‐β‐cyclodextrin). ATM and DSF monotherapy was also done in the presence of 2HP‐β‐CD, to control for possible combination effects by 2HP‐β‐CD. All concentrations were applied in triplicate. After incubation at 37 °C for 72 h, CellTiter‐Blue (Promega) was added (10 μL/well). After incubation at 37 °C for 4 h, fluorescence (excitation filter: 550 nm, emission filter 590 nm) was determined in an Optima FLUOstar microplate reader (BMG Labtech). Mean values were calculated for each treatment and EC50 values were calculated from […] dose response curves.

SK-OV-3 = assay: Quantification of drug sensitivity (CellTiter-Blue), SK-OV-3; assay type: cell-based; details: SK-OV-3 (ovarian carcinoma), 72 h, 30-fold excess 2-hydroxypropyl-β-cyclodextrin, combination DSF/ATM 1:1
Procedure: as §1

Calu-6 cells = assay: Quantification of drug sensitivity (CellTiter-Blue), Calu-6; assay type: cell-based; details: Calu-6 (NSCLC), 72 h, 30-fold excess 2-hydroxypropyl-β-cyclodextrin, combination DSF/ATM 1:1
Procedure: as §1
Dose-Response Curves of ATM/DSF and 5
Figure S2: Dose-response curves of the s toichiometric mixture of ATM and DSF (blue) as well
as isolated 5 (red) for the treatment of Calu-6 cells (both in the presence of 30-fold excess of 2-
(also on this page, place not known: Normalized Proliferation (CellTiter-Blue) stoichiometric) […]

COLO-357 = assay: Quantification of drug sensitivity (CellTiter-Blue), COLO-357; assay type: cell-based; details: COLO-357 (pancreatic cancer), 72 h, 30-fold excess 2-hydroxypropyl-β-cyclodextrin, combination DSF/ATM 1:1
Procedure: as §1

MeWo = assay: Quantification of drug sensitivity (CellTiter-Blue), MeWo; assay type: cell-based; details: MeWo (melanoma), 72 h, 30-fold excess 2-hydroxypropyl-β-cyclodextrin, combination DSF/ATM 1:1
Procedure: as §1

HL-60 = assay: Quantification of drug sensitivity (CellTiter-Blue), HL-60; assay type: cell-based; details: HL-60 (non-T cell leukemia), 72 h, 30-fold excess 2-hydroxypropyl-β-cyclodextrin, combination DSF/ATM 1:1
Procedure: as §1

HCT 116 = assay: Quantification of drug sensitivity (CellTiter-Blue), HCT 116; assay type: cell-based; details: HCT 116 (colon carcinoma), 72 h, 30-fold excess 2-hydroxypropyl-β-cyclodextrin, combination DSF/ATM 1:1
Procedure: as §1

[1] = system: cytoplasmic ROS in H838 cells (roGFP2-Orp1); assay: ROS level in cytoplasm, roGFP2-Orp1 sensor; assay type: cell-based; details: 12.5 μM, DMSO stock or up to 32-fold excess of SBE-β-CD
Procedure: (§2) Measurement of ROS levels in cytoplasm and mitochondria (Figure 8): The effects of 33 and auranofin on roGFP2‐Orp1 oxidation were quantified in H838 cells stably expressing roGFP2‐Orp1 targeted either to cytoplasm or mitochondria as described in Ezerina et al.[28] Specifically, a 5 mM stock solution of 33 was prepared by directly dissolving solid 33 into 10 mM, 40 mM, 80 mM, and 160 mM solutions of SBE‐β‐CD (Biomol) in PBS (Gibco). A 100 mM auranofin (Sigma‐Aldrich) solution was prepared in DMSO (Sigma‐Aldrich). This was further diluted to 0.5 mM stock solutions of auranofin in 0 mM, 4 mM, 8 mM, and 16 mM SBE‐β‐CD in PBS. […] Non‐transduced H838 cells were seeded on the same plate to establish background fluorescence. The fluorescence intensity from these wells was subtracted from all the measurement results. To establish the signal baseline, the entire plate was measured every 3 min for 8 cycles in a CLARIOstar fluorescence plate reader (BMG Labtech), with excitation wavelengths of 400 nm and 485 nm, while measuring emission at 520 nm. […] The readout of the roGFP2 measurement is normalized to the positive (1.0) and the negative (0) controls using the following equation: OxDroGFP2=(I400sampleI485red)-(I400redI485sample)/(I400sample)I485red-I485ox+(I485sampleI400ox-I400red)
(§3) where I400 and I485 are the signal intensities measured at 520 nm after excitation at 400 nm and 485 nm, respectively. […]

[2] = system: mitochondrial ROS in H838 cells (roGFP2-Orp1); assay: ROS level in mitochondria, roGFP2-Orp1 sensor; assay type: cell-based; details: 12.5 μM, DMSO stock or up to 32-fold excess of SBE-β-CD
Procedure: as §2, §3

[3] = Solubility / solubilization in solvents and cyclodextrin (observations); assay type: physicochemical

Compound: O=C([O-])CC([S-])C(=O)[O-].[Au+].[Na+].[Na+] (stereo not shown) [ATM, sodium aurothiomalate]
EC50 (HeLa): 440 µM
EC50 (SK-OV-3): 260 µM
EC50 (Calu-6 cells): 360 µM
EC50 (COLO-357): 96 µM
EC50 (MeWo): 130 µM
EC50 (HL-60): 330 µM
EC50 (HCT 116): 140 µM

EC50 (HeLa; Homo sapiens): 320 µM
EC50 (SK-OV-3; Homo sapiens): 340 µM
EC50 (Calu-6 cells; Homo sapiens): 160 µM
EC50 (COLO-357; Homo sapiens, COLO357): 82 µM
EC50 (HL-60; Homo sapiens): 120 µM
EC50 (HCT 116; Homo sapiens): 3.4 µM
Compound: CCN(CC)C(=S)SSC(=S)N(CC)CC [DSF, disulfiram]
EC50 (MeWo; Homo sapiens): 290 µM

Compound: CC(=O)OC[C@H]1O[C@@H]([S-])[C@H](OC(C)=O)[C@@H](OC(C)=O)[C@@H]1OC(C)=O.CCP(CC)CC.[Au+] [auranofin]
cytoplasmic ROS (roGFP2-Orp1 oxidation) [1]: high levels of ROS
mitochondrial ROS (roGFP2-Orp1 oxidation) [2]: high levels of ROS

EC50 (Calu-6 cells): 1.6 µM
cyclodextrin required for solubilization [3]: > 30 molar equivalents
solubility in common/organic solvents ([3]; organic solvents including DMSO, ambient temperature): poor solubility
Compound: [Au(N,N‐diethyl)dtc]2 [compound 5]
